# According to patent US20230130066A1, “USE OF CYCLODEXTRINS IN DISEASES AND DISORDERS INVOLVING PHOSPHOLIPID DYSREGULATION” (priority 2017, published 2023):
# Several values for one entry are separate records, joined by “and”; a condition that tells them apart may be missing. Identical values can stand only once. Like-named read-outs stand apart in the source and are kept apart here.
# Tests used:
# Caco-2 monolayers = conditions: cited from earlier work; for equally effective concentration on paracellular permeability: after 40 min
# BBB [1] = conditions: cited from earlier work; for Transport across BBB: 2 h, 1 mM
# [2] = cited from earlier work
# Caco-2 cells = conditions: cited from earlier work
# [3] = mice with spinobulbar muscular atrophy (SBMA); cited from earlier work
# NPC cells = conditions: cited from earlier work
# human keratinocytes = conditions: cited from earlier work
# erythrocytes = conditions: cited from earlier work
# Aβ1-40/42 = conditions: rats, stereotactical injection into the hippocampus; cited from earlier work
# rats [4] = conditions: cited from earlier work
# transferrin endocytosis = conditions: 10 mM; cited from earlier work
# rats [5] = conditions: […] daily; cited from earlier work
# BBB [6] = conditions: cited from earlier work
# LINCL fibroblasts = conditions: dose- and time-dependent; cited from earlier work
# cats = conditions: doses of 4-8 g/kg; cited from earlier work
# [7] = cited from earlier work; remark: listed apart in the source
# MCF-7 cells = experiment: Wound healing / gap closure migration assay, MCF-7; format: cell-based, human; conditions: 2 h treatment; for wound closure, replications r1-r3: listed as HPbCD
# Method: (§1) Cells were cultured in 24-well culture plates (Cytoselect CBA-120, 0.9 mm wound healing/gap closure migration assay) for 24 h with wound healing insert in place.
# (§2) Protocol: Warm up the 24-well plate (CBA-120, Cell BioLabs Inc.) with 0.9 mm CytoSelect Wound Healing Inserts at room temperature for 10 minutes. Using sterile forceps, orient the desired number of inserts in the plate wells with their “wound field” aligned in the same direction. Create a cell suspension containing 0.5-1.0×10^6 cells/ml in media containing 10% fetal bovine serum (FBS). Add 500 μL of cell suspension to each well by carefully inserting the pipette tip through the open end at the top of the insert. For optimal cell dispersion, add 250 μL of cell suspension to either side of the open ends at the top of the insert. Incubate cells in a cell culture incubator for 12-24 hours. Carefully remove the insert from the well to begin the wound healing assay. Use sterile forceps to grab and lift the insert slowly from the plate well. Slowly aspirate and discard the media from the wells. Wash wells with media to remove dead cells and debris. Finally, add media to wells to keep cells hydrated. Repeat wash if wells still have debris or unattached cells. When washing is complete, add media with FBS and/or compounds to continue cell culture and wound healing process. Agents that inhibit or stimulate cell migration can be added directly to the wells. Incubate cells in a cell culture incubator (2 hours) and then wash cells with PBS and then add fresh media without compounds. Incubate 12-24 hours before wash and fixing. Remove the fixation solution and add 400 μL of Cell Stain Solution to each well. Allow the stain to incubate with the cells for 15 minutes at room temperature. Aspirate and discard the solution. Carefully wash each stained well 3× with deionized water. Discard washes and allow cells to dry at room temperature. Cells that migrated into the wounded area or protruded from the border of the wound were visualized and photographed under an inverted microscope. Determine the surface area of the defined wound area: Total Surface Area=0.9 mm x length. Determine the surface area of the migrated cells into the wound area: Migrated Cell Surface Area=length of cell migration (mm)×2×length. Percent Closure (%)=Migrated Cell Surface Area/Total Surface Area x 100.
# [8] = cited from earlier work; remark: listed apart in the source
# [9] = rats, suppositories containing triglycerides (Witepsol H5); cited from earlier work
# MDA-MB-231 cells = experiment: Wound healing / gap closure migration assay, MDA-MB-231; format: cell-based, human; conditions: 2 h treatment; for wound closure, replications r1-r3: listed as HPbCD
# Method: Published results have shown that β-CD inhibits human MDA-MB 231 cell migration. See Translational Medicine Communications, 1 (1), 3. This inhibition was attributed to the ability of β-CD to “deplete cholesterol”. β-CD, however, depletes also phospholipids.
# as §1, §2
# Tg19959 mice [10] = conditions: four months subcutaneous; cited from earlier work
# HeLa/TFEB cells = conditions: cited from earlier work
# leukemia = leukemia mouse models; cited from earlier work
# [11] = Table 3; cited from earlier work
# membrane cholesterol = conditions: SwN2a cells; cited from earlier work
# a-syn aggregates = conditions: neuroglioma cells, via autophagy; cited from earlier work
# [12] = system: unesterified cholesterol (UC) storage; conditions: 3-week-old Npc1-/- mice, dorsal neocortex, filipin; cited from earlier work
# rats [13] = conditions: cited from earlier work; remark: listed apart in the source
# Tg19959 mice [14] = conditions: four months subcutaneous; cited from earlier work; remark: listed apart in the source
# [15] = in vivo; cited from earlier work
# Aβ42 = conditions: SwN2a cells; persistent for 24 h after withdrawal; cited from earlier work
# [16] = mice, cats, and one human; cited from earlier work
compound,measurement,setting,value
"CCCCCCCCCCCC(=O)O [C12, lauric acid]",tight junction morphology,Caco-2 monolayers; Caco-2 monolayers,did not induce detectable changes
same,equally effective concentration on paracellular permeability,Caco-2 monolayers,0.75 mM
"CCCCCCCCCC(=O)O [C10, Capric acid]",equally effective concentration on paracellular permeability,Caco-2 monolayers,13 mM
CN1CCCC1c1cccnc1 (stereo not drawn) [nicotine],transported through the BBB,"BBB [1]; in vitro, after 2 h of incubation",96%
alendronate-β-CD [ALN-β-CD],effect on bone,"[2]; rat, in vivo",bone-anabolic
maltosyl-α-CD,cytotoxicity,Caco-2 cells,less cytotoxic than α-CD
C[C@@]12C[C@@]3(O)O[C@@H](O1)[C@]1(COC(=O)c4ccccc4)[C@H]3C[C@@]12O[C@@H]1O[C@H](CO)[C@@H](O)[C@H](O)[C@H]1O [paeoniflorin],disease phenotype,[3],mitigates the disease phenotype
"OC[C@H]1O[C@@H]2O[C@H]3[C@H](O)[C@@H](O)[C@@H](O[C@H]4[C@H](O)[C@@H](O)[C@@H](O[C@H]5[C@H](O)[C@@H](O)[C@@H](O[C@H]6[C@H](O)[C@@H](O)[C@@H](O[C@H]7[C@H](O)[C@@H](O)[C@@H](O[C@H]8[C@H](O)[C@@H](O)[C@@H](O[C@H]1[C@H](O)[C@H]2O)O[C@@H]8CO)O[C@@H]7CO)O[C@@H]6CO)O[C@@H]5CO)O[C@@H]4CO)O[C@@H]3CO [β-CD, beta-cyclodextrin]",cholesterol accumulation,NPC cells,can reduce cholesterol accumulation
same,apoptotic cell death,human keratinocytes,induces caspase-dependent apoptotic cell death
same,cholesterol released,erythrocytes; 10 mM,95%
same,extraction of cholesterol,erythrocytes; erythrocytes,most effectively
same,Toxicity of Aβ1-40/42,Aβ1-40/42,reduced
same,Transport across BBB,BBB [1],26.7%
same,acute i.v. toxicity in rats,rats [4],1 g/kg
same,reduction of transferrin endocytosis,transferrin endocytosis,80%
same,"deaths, daily doses s.c.",rats [5],no deaths
same,BBB breakdown,BBB [6],2.5 mM
same,toxicity on BBB in vitro,BBB [6],similar
"OC[C@H]1O[C@@H]2O[C@H]3[C@H](O)[C@@H](O)[C@@H](O[C@H]4[C@H](O)[C@@H](O)[C@@H](O[C@H]5[C@H](O)[C@@H](O)[C@@H](O[C@H]6[C@H](O)[C@@H](O)[C@@H](O[C@H]7[C@H](O)[C@@H](O)[C@@H](O[C@H]8[C@H](O)[C@@H](O)[C@@H](O[C@H]9[C@H](O)[C@@H](O)[C@@H](O[C@H]1[C@H](O)[C@H]2O)O[C@@H]9CO)O[C@@H]8CO)O[C@@H]7CO)O[C@@H]6CO)O[C@@H]5CO)O[C@@H]4CO)O[C@@H]3CO [γ-CD, gamma-cyclodextrin]",cholesterol accumulation,NPC cells,can reduce cholesterol accumulation
2-hydroxypropyl-β-cyclodextrin [HP-β-CD],ceroid lipopigment,LINCL fibroblasts,clearance of ceroid lipopigment
same,ototoxicity,cats,permanent hearing loss
same,oral absorption in rats,[7],≤3%
same,average wound closure (avg),"MCF-7 cells; MCF-7, 1 mM",73.33%
same,"wound closure, replications r1-r3","MCF-7 cells; MCF-7, 1 mM",68.00% and 74.00% and 78.00%
same,average wound closure (avg),"MCF-7 cells; MCF-7, 2 mM",48.33%
same,"wound closure, replications r1-r3","MCF-7 cells; MCF-7, 2 mM",41.00% and 48.00% and 56.00%
same,average wound closure (avg),"MCF-7 cells; MCF-7, 4 mM",33.67%
same,"wound closure, replications r1-r3","MCF-7 cells; MCF-7, 4 mM",32.00% and 28.00% and 41.00%
same,apoptotic cell death,human keratinocytes; human keratinocytes,not apoptotic
same,tolerability,"[8]; children with NPC, doses of up to 1000 mg/kg/d",well tolerated
same,side effects,"[8]; two children with NPC, about 2500 mg/kg bi-weekly (≈700 mg/kg/d), over a year",no discernable side effects
same,"absorption, administered rectally",[9],26%
same,average wound closure (avg),"MDA-MB-231 cells; MDA-MB-231, 1 mM",67.67%
same,"wound closure, replications r1-r3","MDA-MB-231 cells; MDA-MB-231, 1 mM",62.00% and 68.00% and 73.00%
same,average wound closure (avg),"MDA-MB-231 cells; MDA-MB-231, 2 mM",56.00%
same,"wound closure, replications r1-r3","MDA-MB-231 cells; MDA-MB-231, 2 mM",48.00% and 59.00% and 61.00%
same,average wound closure (avg),"MDA-MB-231 cells; MDA-MB-231, 4 mM",39.00%
same,"wound closure, replications r1-r3","MDA-MB-231 cells; MDA-MB-231, 4 mM",48.00% and 44.00% and 25.00%
same,Transport across BBB,BBB [1],9.3%
same,spatial learning and memory deficits,Tg19959 mice [10],significantly improved
same,"expression of LC3, SQSTM1/p62 and BECN1",HeLa/TFEB cells,up-regulated
same,survival,leukemia,prolonged survival
same,Solubility in water,[11],>600 mg/mL
same,level of membrane cholesterol,membrane cholesterol,reduced
same,a-syn aggregates,a-syn aggregates,promoted clearance
same,UC storage in brain cells,[12],highly effective reduction
same,acute i.v. toxicity in rats,rats [4],10 g/kg
same,effect of 1 g/kg in rats,rats [13],did not cause adverse clinical signs
same,Aβ plaque deposition,Tg19959 mice [14],diminished
same,tau immunoreactive dystrophic neurites (DN),Tg19959 mice [14],reduced
same,BBB breakdown,BBB [6],2.5 mM
same,toxicity on BBB in vitro,BBB [6],similar
same,bone mineral density (BMD),"[2]; long-term parenteral administration, 200 mg/kg",decrease bone mineral density
same,half-life (t1/2),[15],1.7 to 1.9 h
same,vol. of distribution (VD),[15],0.2 L/kg
same,levels of Aβ42,Aβ42,dramatically lowered
same,ototoxicity,[16],risk of causing permanent hearing loss
